Measurements from US8957074B2 (Novartis AG, priority 2010, dated 2015).
Where two headings read alike, the source gives them in different places.

What was measured:
[1] = system: phosphorylation of pRb at the Ser780 site in JeKo-1 mantle cell lymphoma cells; experiment: CDK4 cellular assay: ELISA of pRb phosphorylation at Ser780 in JeKo-1 cells; assay type: cell-based; settings: Homo sapiens
Text: Cell-based assay measuring phosphorylation levels of pRb at the Ser780 site using an enzyme-linked immunosorbent assay (ELISA) method (Table 6). JeKo-1, a mantle-cell lymphoma cell line, was selected for use in this assay due to its known translocation and subsequent overexpression of cyclin D1. [Ref: Amin, H. M.; McDonnell, T. J.; Medeiros, L. J.; Rassidakis, G. Z.; Leventaki, V.; O'Connor, S. L.; Keating, M. J.; Lai, R. Characterization of 4 mantle cell lymphoma cell lines—Establishment of an in vitro study model. Arch. Pathol. Lab.
Cells were allowed to adhere overnight. […] 10 μL of the dilution were then transferred to the cell culture plate, resulting in a final concentration range of 10 μM to 2 nM. The incubation was carried out at 37° C. with 5% CO2. All compounds were tested in triplicates at each concentration. […] The plates were placed at 4° C. with vigorous shaking for 5 min to lyse the cells. The resulting lysates contained approximately 1 μg/μL of protein.
Plates were incubated overnight at 4° C. with rocking. […] After shaking for 10 minutes, the Superblock solution was replaced with fresh Superblock and plates were incubated on a shaker for an additional 50 min. After blocking, 30 μL of JeKo-1 cell lysate, containing approximately 10 μg total protein, were added to wells in triplicate. […] For all incubation steps, plates were covered with Uniseal plate sealers. […] Next, 50 μL of a 1:2500 dilution of donkey-anti-rabbit HRP (Promega catalog no. W401B) in PBS/10% Superblock were added, and plates were incubated for 30 min at room temperature on a shaker. Plates were again washed as described above. […] After incubation, 50 μL 2 M sulfuric acid were added to plates to top the reaction, and absorbance was determined on a SpectraMax (Molecular Devices, Sunnydale, Calif.) within 15 minutes at 450 nm. All washes were performed using a Bio-Tek plate washer.
The Total Rb ELISA kit (Invitrogen catalog no. KH00011) was used to determine the levels of total pRb. This kit uses wells precoated with a proprietary total pRb antibody for capture. All reagents listed, with the exception of cell lysate, were included in the kit. The nature of the antibodies used for capture and detection was labeled as proprietary and not disclosed. 10 μg of cell lysate was loaded into the wells and volume adjusted to 50 μL with standard dilution buffer. Plates were sealed with film included in the kit and incubated for 2 h at room temperature on a shaker. Plates are then manually washed three times with 250 μL wash buffer. 50 μL of proprietary primary antibody (pre-conjugated to biotin) was added to wells and incubated for 1 h at room temperature on a shaker. Then plates were again washed as noted above. The secondary antibody (HRP pre-conjugated to Streptavidin) was diluted 1:100 in Streptavidin-HRP diluent buffer and 50 μL was added to each well. Plates were then incubated for 30 min. Afterwards, plates were washed four times with buffer as outlined above. Finally, 50 μL stabilized Chromogen was added per well and plates were incubated for 15 min, at which point 50 μL of stop solution was added. Plates were then read on a Spectramax at 450 nm.
The total pRb levels were then used to adjust the p-pRb % inhibition values to account for any loss of signal due to the absence of the pRb protein itself, and the IC50 values obtained from the adjusted % inhibitions represent normalized cellular p-pRb IC50.

CDK1/cyclin B = CDK1/cyclin B (Homo sapiens (Human), UniProt P06493); experiment: CDK1/cyclin B enzymatic activity assay (IMAP-FP); assay type: biochemical; settings: 100 nM Tamra Histone-H1 peptide, 20 μM ATP, 120 min at room temperature, read-out: Biochemical CDK1 enzyme IC50
Chain of CDK1/cyclin B (P06493 whole entry, species assumed): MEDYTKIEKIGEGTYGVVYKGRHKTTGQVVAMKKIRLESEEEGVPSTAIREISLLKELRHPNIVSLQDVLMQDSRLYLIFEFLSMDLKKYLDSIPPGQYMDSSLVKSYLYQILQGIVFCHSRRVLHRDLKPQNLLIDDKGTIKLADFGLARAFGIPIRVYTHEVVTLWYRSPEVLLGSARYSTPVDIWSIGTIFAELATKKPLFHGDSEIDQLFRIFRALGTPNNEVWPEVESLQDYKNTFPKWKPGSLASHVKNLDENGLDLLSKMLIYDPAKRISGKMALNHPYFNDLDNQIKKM
Chain of CDK1/cyclin B (P14635 whole entry partner, species assumed): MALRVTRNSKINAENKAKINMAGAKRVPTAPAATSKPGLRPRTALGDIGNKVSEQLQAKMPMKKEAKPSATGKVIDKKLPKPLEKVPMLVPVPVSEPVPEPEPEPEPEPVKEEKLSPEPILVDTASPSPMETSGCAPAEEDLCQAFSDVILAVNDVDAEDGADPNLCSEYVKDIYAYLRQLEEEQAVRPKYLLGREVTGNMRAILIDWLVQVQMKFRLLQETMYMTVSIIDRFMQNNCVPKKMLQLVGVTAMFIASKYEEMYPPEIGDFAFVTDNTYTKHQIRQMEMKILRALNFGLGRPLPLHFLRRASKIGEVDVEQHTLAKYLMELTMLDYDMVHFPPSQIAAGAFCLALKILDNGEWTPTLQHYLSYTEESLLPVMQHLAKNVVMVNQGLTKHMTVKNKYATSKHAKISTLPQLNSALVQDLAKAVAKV
Text: CDK1/Cyclin B Enzymatic Activity Assay
A 384-well microtiter IMAP-FP™ (Molecular Devices Trade Mark Technology) endpoint assay was used for CDK1/cyclin B kinase activity measurements. The same assay was used for IC50 determination of small molecule inhibitors.

CDK4/cyclin D1 = CDK4/cyclin D1 (Homo sapiens (Human), UniProt P11802); experiment: CDK4/cyclin D1 enzymatic activity assay (TR-FRET, phosphorylation of pRb at Ser780); assay type: biochemical
Chain of CDK4/cyclin D1 (P11802 whole entry): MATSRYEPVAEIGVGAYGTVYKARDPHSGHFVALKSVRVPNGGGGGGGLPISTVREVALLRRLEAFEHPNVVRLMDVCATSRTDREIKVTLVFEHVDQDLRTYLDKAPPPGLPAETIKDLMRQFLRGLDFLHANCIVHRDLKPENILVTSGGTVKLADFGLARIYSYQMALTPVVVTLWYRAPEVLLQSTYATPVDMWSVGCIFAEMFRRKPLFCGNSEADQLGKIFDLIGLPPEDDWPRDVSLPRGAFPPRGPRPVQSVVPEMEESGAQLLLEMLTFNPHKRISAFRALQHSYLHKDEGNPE
Chain of CDK4/cyclin D1 (P24385 whole entry partner): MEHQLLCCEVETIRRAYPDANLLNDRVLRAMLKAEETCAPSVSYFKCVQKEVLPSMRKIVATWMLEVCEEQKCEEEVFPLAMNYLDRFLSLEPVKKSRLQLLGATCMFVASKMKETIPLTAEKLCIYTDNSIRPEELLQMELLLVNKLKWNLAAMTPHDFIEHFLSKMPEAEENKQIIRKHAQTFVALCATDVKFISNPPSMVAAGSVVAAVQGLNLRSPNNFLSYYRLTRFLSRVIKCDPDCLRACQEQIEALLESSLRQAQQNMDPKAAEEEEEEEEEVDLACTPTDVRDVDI
Procedure: CDK4/Cyclin D1 Enzymatic Activity Assay
An assay for monitoring CDK4/cyclin D1-catalyzed phosphorylation of pRb at the Ser780 site was performed using TR-FRET in a 384-well format, and was used for IC50 determination and kinetic analysis. […] 3 μM ATP was added last to initiate the reaction. The reaction was quenched with 10 μL of 240 mM EDTA-Na (pH 8.0) after 60 min incubation at 22° C.
Human CDK4/cyclin D1 was expressed in Sf21 cells via baculovirus infection.

[2] = JeKo-1 cells, p-pRb % inhibition adjusted with total pRb levels, read-out: Normalized cellular ppRb inhibition IC50
[3] = JeKo-1 cells, p-pRb Ser780 ELISA, non-normalized, read-out: Cellular ppRb inhibition IC50
[4] = 0.3 nM CDK4/cyclin D1, 150 nM biotin-pRb (773-924), 3 μM ATP, 60 min at 22° C., read-out: Biochemical CDK4 enzyme IC50
[5] = JeKo-1, JeKo-1 cells, p-pRb % inhibition adjusted with total pRb levels, read-out: Normalized cellular ppRb inhibition IC50
[6] = JeKo-1, JeKo-1 cells, p-pRb Ser780 ELISA, non-normalized, read-out: Cellular ppRb inhibition IC50

| SMILES | IC50 (CDK1/cyclin B; 0.25 nM CDK1/cyclin B) | IC50 (CDK4/cyclin D1; [4]) | IC50 (CDK1/cyclin B; […] CDK1/cyclin B) | IC50 [1, 2] | IC50 [1, 3] | IC50 [1, 5] | IC50 [1, 6] | IC50 (CDK4/cyclin D1) |
| --- | --- | --- | --- | --- | --- | --- | --- | --- |
| CN(C)C(=O)c1cc2cnc(Nc3ccc(C(=O)N4CC5CCC(C4)N5)cn3)nc2n1C1CCCCCC1 [Example 4, 2-(5-(3,8-diazabicyclo[3.2.1]octane-3-carbonyl)pyridin-2-ylamino)-7-cycloheptyl-N,N-dimethyl-7H-pyrrolo[2,3-d]pyrimidine-6-carboxamide] | – | 4 nM | 7060 nM | – | – | 10 nM | 9 nM | – |
| CN(C)C(=O)c1cc2cnc(Nc3ccc(C(=O)N4CC5CCC(C4)C5(C)O)cn3)nc2n1C1CCCCCC1 (centres unmarked) [Example 6, 7-cycloheptyl-2-(5-(8-hydroxy-8-methyl-3-azabicyclo[3.2.1]octane-3-carbonyl)pyridin-2-ylamino)-N,N-dimethyl-7H-pyrrolo[2,3-d]pyrimidine-6-carboxamide] | – | 187 nM | > 15000 nM | 889 nM | 148 nM | – | – | – |
| CN(C)C(=O)c1cc2cnc(Nc3ccc(C(=O)N4CC5CCC4C5O)cn3)nc2n1C1CCCCCC1 [Example 7, 7-cycloheptyl-2-(5-((1R,4R,7R)-7-hydroxy-2-azabicyclo[2.2.1]heptane-2-carbonyl)pyridin-2-ylamino)-N,N-dimethyl-7H-pyrrolo[2,3-d]pyrimidine-6-carboxamide] | – | 21 nM | 17600 nM | 288 nM | 127 nM | – | – | – |
| CC(=O)N1C2CCC1CN(C(=O)c1ccc(Nc3ncc4cc(C(=O)N(C)C)n(C5CCCCCC5)c4n3)nc1)C2 [Example 8, 2-(5-(8-acetyl-3,8-diazabicyclo[3.2.1]octane-3-carbonyl)pyridin-2-ylamino)-7-cycloheptyl-N,N-dimethyl-7H-pyrrolo[2,3-d]pyrimidine-6-carboxamide] | – | 39 nM | > 15000 nM | 259 nM | 72 nM | – | – | – |
| CN(C)C(=O)c1cc2cnc(Nc3ccc(C(=O)N4CC5CC(C4)N(CC(F)(F)F)C5)cn3)nc2n1C1CCCC1 (centres unmarked) [Example 12, 7-Cyclopentyl-2-{5-[6-(2,2,2-trifluoro-ethyl)-3,6-diaza-bicyclo[3.2.1]octane-3-carbonyl]-pyridin-2-ylamino}-7H-pyrrolo[2,3-d]pyrimidine-6-carboxylic acid dimethylamide] | – | 49 nM | > 15000 nM | 724 nM | 255 nM | – | – | – |
| CN(C)C(=O)c1cc2cnc(Nc3ccc(C(=O)N4CC5CC5(N(C)C)C4)cn3)nc2n1C1CCCC1 (centres unmarked) [Example 17, 7-Cyclopentyl-2-[5-(1-dimethylamino-3-aza-bicyclo[3.1.0]hexane-3-carbonyl)-pyridin-2-ylamino]-7H-pyrrolo[2,3-d]pyrimidine-6-carboxylic acid dimethylamide] | – | 65 nM | > 15000 nM | 643 nM | 281 nM | – | – | – |
| CN(C)C(=O)c1cc2cnc(Nc3ccc(C(=O)N4CC5CCC(C4)N5)cn3)nc2n1C1CCCC1 [Example 18, 7-Cyclopentyl-2-[5-(3,8-diaza-bicyclo[3.2.1]octane-3-carbonyl)-pyridin-2-ylamino]-7H-pyrrolo[2,3-d]pyrimidine-6-carboxylic acid dimethylamide] | – | – | 13200 nM | – | – | 26 to 90 nM | 12 to 37 nM | 8 to 24 nM |
| CN(C)C(=O)c1cc2cnc(Nc3ccc(C(=O)N4CCN5CCCC5C4)cn3)nc2n1C1CCCC1 (centres unmarked) [Example 20, 7-Cyclopentyl-2-[5-(hexahydro-pyrrolo[1,2-a]pyrazine-2-carbonyl)-pyridin-2-ylamino]-7H-pyrrolo[2,3-d]pyrimidine-6-carboxylic acid dimethylamide] | – | 64 nM | > 15000 nM | – | – | 452 nM | 267 nM | – |

Second part, led by results:

| IC50 (CDK1/cyclin B; 0.25 nM CDK1/cyclin B) | IC50 (CDK4/cyclin D1; [4]) | IC50 (CDK1/cyclin B; […] CDK1/cyclin B) | SMILES | IC50 [1, 2] | IC50 [1, 3] | IC50 [1, 5] | IC50 [1, 6] | IC50 (CDK4/cyclin D1) |
| --- | --- | --- | --- | --- | --- | --- | --- | --- |
| 4200 to 5140 nM | 1 nM | – | CN(C)C(=O)c1cc2cnc(Nc3ccc(C(=O)N4CC5CC4CN5)cn3)nc2n1C1CCCCCC1 (centres unmarked) [Example 3, 7-Cycloheptyl-2-[5-(2,5-diaza-bicyclo[2.2.1]heptane-2-carbonyl)-pyridin-2-ylamino]-7H-pyrrolo[2,3-d]pyrimidine-6-carboxylic acid dimethylamide] | 29 to 33 nM | 19 to 26 nM | – | – | – |
| – | 8 to 16 nM | > 15000 nM | CN(C)C(=O)c1cc2cnc(Nc3ccc(C(=O)N4CCC5(CC4)CNC5)cn3)nc2n1C1CCCCCC1 [Example 5, 2-(5-(2,7-diazaspiro[3.5]nonane-7-carbonyl)pyridin-2-ylamino)-7-cycloheptyl-N,N-dimethyl-7H-pyrrolo[2,3-d]pyrimidine-6-carboxamide] | 117 nM | 115 nM | – | – | – |
| – | 5 nM | 4140 nM | CN(C)C(=O)c1cc2cnc(Nc3ccc(C(=O)N4C[C@@H]5CN[C@@H](C5)C4)cn3)nc2n1C1CCCC1 [Example 10, 7-Cyclopentyl-2-[5-((1S,5S)-3,6-diaza-bicyclo[3.2.1]octane-3-carbonyl)-pyridin-2-ylamino]-7H-pyrrolo[2,3-d]pyrimidine-6-carboxylic acid dimethylamide] | – | – | 25 nM | 21 nM | – |
| – | 9 nM | > 15000 nM | CN(C)C(=O)c1cc2cnc(Nc3ccc(C(=O)N4C[C@H]5CN[C@H](C5)C4)cn3)nc2n1C1CCCC1 [Example 11, 7-Cyclopentyl-2-[5-((1R,5R)-3,6-diaza-bicyclo[3.2.1]octane-3-carbonyl)-pyridin-2-ylamino]-7H-pyrrolo[2,3-d]pyrimidine-6-carboxylic acid dimethylamide] | – | – | 68 nM | 39 nM | – |
| – | 6 nM | 8440 nM | CN(C)C(=O)c1cc2cnc(Nc3ccc(C(=O)N4CC5CC(C4)N(C)C5)cn3)nc2n1C1CCCC1 (centres unmarked) [Example 13, 7-Cyclopentyl-2-[5-(6-methyl-3,6-diaza-bicyclo[3.2.1]octane-3-carbonyl)-pyridin-2-ylamino]-7H-pyrrolo[2,3-d]pyrimidine-6-carboxylic acid dimethylamide] | 145 nM | 65 nM | – | – | – |
| – | 5 to 8 nM | > 15000 nM | CN(C)C(=O)c1cc2cnc(Nc3ccc(C(=O)N4C[C@@H]5C[C@H]4CN5)cn3)nc2n1C1CCCC1 [Example 19, 7-Cyclopentyl-2-[5-((S,S)-2,5-diaza-bicyclo[2.2.1]heptane-2-carbonyl)-pyridin-2-ylamino]-7H-pyrrolo[2,3-d]pyrimidine-6-carboxylic acid dimethylamide] | – | – | 64 to 116 nM | 54 to 55 nM | – |
